Assay [1] addresses T1, catalytic domain (JH1, amino acids 826-1132) of human JAK2 (Homo sapiens, UniProt O60674).
T1 construct: catalytic domain (JH1, amino acids 826-1132) of human JAK2; FLAG (N); biotin (biotinylated); purchased Carna Biosciences 08-445-20N; host or cells: baculovirus expression system
Description: JAK2 LanthaScreen JH1 Binding Assay. To be noted: JAK2 JH1 1.5 nM, 50 nM tracer, 2 hours at 25° C.; read-out: JH1 BIND. The procedure: Example A. JAK2 LanthaScreen JH1 Binding Assay
JAK2 JH1 binding assay utilizes catalytic domain (JH1, amino acids 826-1132) of human JAK2 expressed as N-terminal FLAG-tagged, biotinylated protein in a baculovirus expression system (Carna Biosciences, Product #08-445-20N). The assay was conducted in black 384-well polystyrene plates in a final reaction volume of 20 μL. JAK2 JH1 (1.5 nM) was incubated with compounds (100 nL serially diluted in DMSO) in the presence of 50 nM fluorescent JAK2-JH1 tracer and 0.5 nM Streptavidin-Tb cryptate (Cisbio Part #610SATLB) in assay buffer (50 mM Tris, pH=7.5, 10 mM MgCl2, 0.01% Brij-35, 0.1% BSA, 1 mM EGTA, 5% Glycerol and 5 mM DTT). Non-specific binding was accessed in the presence of 2 mM ATP. After incubation for 2 hours at 25° C., LanthaScreen signals were read on a PHERAstar FS plate reader (BMG LABTECH). Data was analyzed with IDBS XLfit and GraphPad Prism 5.0 software using a four parameter dose response curve to determine IC50 for each compound.
(In TR-FRET formats the signal depends on donor and acceptor labels being close together.)

The target in assay [2] is T2, pseudo-kinase domain (JH2, amino-acids 536-812) of human Wild Type JAK2 (Homo sapiens, UniProt O60674, F794H/W659A/W777A).
T2 construct: pseudo-kinase domain (JH2, amino-acids 536-812 with 3 surface mutations W659A, W777A, F794H); His (C); purchased BPS Bioscience 79463; host or cells: baculovirus expression system
Description: JAK2 LanthaScreen JH2-WT Binding Assay. To be noted: JAK2 JH2-WT 0.145 nM, 50 nM tracer, 1 hour at 25° C.; read-out: JH2 BIND WT. The procedure:
Example B. JAK2 LanthaScreen JH2-WT Binding Assay
JAK2 JH2-WT binding assay utilizes pseudo-kinase domain (JH2, amino-acids 536-812 with 3 surface mutations W659A, W777A, F794H) of human Wild Type JAK2 expressed as C-terminal His-Avi-tagged, biotinylated protein in a baculovirus expression system (BPS Bioscience, Catalog #79463). The assay was conducted in black 384-well polystyrene plates in a final reaction volume of 20 μL. JAK2 JH2-WT (0.145 nM) was incubated with compounds (100 nL serially diluted in DMSO) in the presence of 50 nM Fluorescent JAK2-JH2 Tracer (MedChem Express Catalog #HY-102055) and 0.25 nM Streptavidin-Tb cryptate (Cisbio Part #610SATLB) in assay buffer (50 mM Tris, pH=7.5, 10 mM MgCl2, 0.01% Brij-35, 0.1% BSA, 1 mM EGTA, 5% Glycerol and 5 mM DTT). Non-specific binding was accessed in the presence of 2 mM ATP. After incubation for 1 hour at 25° C., LanthaScreen signals were read on a PHERAstar FS plate reader (BMG LABTECH). Data was analyzed with IDBS XLfit and GraphPad Prism 5.0 software using a four parameter dose response curve to determine IC50 for each compound.

In assay [3] the target is T3, pseudo-kinase domain (JH2, amino-acids 536-812) of human V617F mutant JAK2 (Homo sapiens, UniProt O60674, F794H/V617F/W659A/W777A).
T3 construct: pseudo-kinase domain (JH2, amino-acids 536-812 with 3 surface mutations W659A, W777A, F794H); His (C); purchased BPS Bioscience 79498; host or cells: baculovirus expression system
Description: JAK2 LanthaScreen JH2-V617F Binding Assay. Conditions: JAK2 JH2-V617F 0.26 nM, 50 nM tracer, 1 hour at 25° C.; read-out: JH2 BIND V617F. The essentials:
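This is a TR-FRET tracer-displacement format with a 1 h, 25 °C incubation. It combined 0.26 nM baculovirus-expressed biotinylated JH2-V617F, 50 nM fluorescent JAK2-JH2 tracer and 0.25 nM streptavidin-Tb cryptate in 50 mM Tris pH 7.5, 10 mM MgCl2, 5 mM DTT. Background came from 2 mM ATP, and IC50 values were from four-parameter dose-response fits.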

Assay [4] concerns the target catalytic domain (JH1, amino acids 808-1132) of human JAK2 (Homo sapiens, UniProt O60674). Description: JAK2 HTRF Enzyme Activity Assay. Format: biochemical. Conditions: ATP 30 µM, 60 minutes at 25° C.; read-out: V617F ENZ 30 UM.

catalytic domain (JH1, amino acids 808-1132) of human JAK2, sequence (O60674 808-1132 limits assumed): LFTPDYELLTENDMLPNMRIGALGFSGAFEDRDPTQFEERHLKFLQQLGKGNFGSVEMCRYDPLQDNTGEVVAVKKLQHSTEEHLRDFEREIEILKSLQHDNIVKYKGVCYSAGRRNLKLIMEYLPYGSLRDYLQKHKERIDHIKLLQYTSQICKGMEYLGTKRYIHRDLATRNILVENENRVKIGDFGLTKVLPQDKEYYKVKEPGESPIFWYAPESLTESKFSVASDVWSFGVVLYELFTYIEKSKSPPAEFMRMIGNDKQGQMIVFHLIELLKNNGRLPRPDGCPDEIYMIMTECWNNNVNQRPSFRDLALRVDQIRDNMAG
T3 sequence (O60674 536-812 V617F/W659A/W777A/F794H): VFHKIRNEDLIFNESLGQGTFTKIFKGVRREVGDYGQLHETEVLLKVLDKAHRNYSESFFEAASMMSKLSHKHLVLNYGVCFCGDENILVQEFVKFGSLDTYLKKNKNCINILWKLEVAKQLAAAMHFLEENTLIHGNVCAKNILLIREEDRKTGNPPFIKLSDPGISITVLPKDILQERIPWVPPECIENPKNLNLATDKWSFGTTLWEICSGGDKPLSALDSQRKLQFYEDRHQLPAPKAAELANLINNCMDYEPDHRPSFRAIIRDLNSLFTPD
T2 sequence (O60674 536-812 W659A/W777A/F794H): as the sequence (O60674 536-812 V617F/W659A/W777A/F794H) above, with F82V counted along it
T1 sequence (O60674 826-1132): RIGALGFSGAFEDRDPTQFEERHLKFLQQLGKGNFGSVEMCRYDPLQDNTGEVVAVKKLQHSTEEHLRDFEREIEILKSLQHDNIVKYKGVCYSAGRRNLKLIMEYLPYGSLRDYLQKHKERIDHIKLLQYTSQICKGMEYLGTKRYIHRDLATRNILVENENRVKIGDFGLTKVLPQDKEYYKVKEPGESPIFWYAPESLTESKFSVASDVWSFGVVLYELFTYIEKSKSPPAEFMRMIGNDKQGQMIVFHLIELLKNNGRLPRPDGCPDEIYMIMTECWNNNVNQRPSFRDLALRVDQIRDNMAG

For the molecule `COC(=O)N[C@@H]1CC[C@@H](n2c(=O)n(C)c3cnc(Nc4cccc(-c5ccc6ncccc6c5)n4)cc32)C1` [Example 9, Methyl ((1R,3R)-3-(3-methyl-2-oxo-6-((6-(quinolin-6-yl)pyridin-2-yl)amino)-2,3-dihydro-1H-imidazo[4,5-c]pyridin-1-yl)cyclopentyl)carbamate], the IC50 in assay [1] was more than 1000 nM; in assay [2] it was not above 10 nM; in assay [3], not above 10 nM; in assay [4] it was more than 1000 nM.

With `[2H]C([2H])([2H])n1c(=O)n([C@@H]2CC[C@@H](NC(=O)OC)C2)c2cc(Nc3cc(C(=O)N4CC5CC5(O)C4)c4cccc(C(F)(F)F)c4n3)ncc21` (stereo partly drawn) [Example 10, Methyl ((1R,3R)-3-(6-((4-(1-hydroxy-3-azabicyclo[3.1.0]hexane-3-carbonyl)-8-(trifluoromethyl)quinolin-2-yl)amino)-3-(methyl-d3)-2-oxo-2,3-dihydro-1H-imidazo[4,5-c]pyridin-1-yl)cyclopentyl)carbamate], the IC50 in assay [1] was 500 to 1000 nM; in assay [2], not above 10 nM; in assay [3] it was not above 10 nM; in assay [4], 100 to 500 nM.

As for `COC(=O)N[C@@H]1CC[C@@H](n2c(=O)n(C)c3cnc(Nc4cccc(-c5ccc6c(c5)OCCN6C)n4)cc32)C1` [Example 11, Methyl ((1R,3R)-3-(3-methyl-6-((6-(4-methyl-3,4-dihydro-2H-benzo[b][1,4]oxazin-7-yl)pyridin-2-yl)amino)-2-oxo-2,3-dihydro-1H-imidazo[4,5-c]pyridin-1-yl)cyclopentyl)carbamate], the IC50 in assay [1] was more than 1000 nM; in assay [2], not above 10 nM; in assay [3], not above 10 nM; in assay [4] it was more than 1000 nM.

As for `[2H]C([2H])([2H])n1c(=O)n([C@@H]2CC[C@@H](NC(=O)OC)C2)c2cc(Nc3cc(C(=O)N4CC5CC4CO5)c4cccc(C(F)(F)F)c4n3)ncc21` (stereo partly drawn) [Example 12, Methyl ((1R,3R)-3-(6-((4-(2-oxa-5-azabicyclo[2.2.1]heptane-5-carbonyl)-8-(trifluoromethyl)quinolin-2-yl)amino)-3-(methyl-d3)-2-oxo-2,3-dihydro-1H-imidazo[4,5-c]pyridin-1-yl)cyclopentyl)carbamate], the IC50 in assay [1] was more than 1000 nM; in assay [2], not above 10 nM; in assay [3], not above 10 nM; in assay [4], more than 1000 nM.

`[2H]C([2H])([2H])n1c(=O)n([C@@H]2CC[C@@H](NC(=O)OC)C2)c2cc(Nc3cc(C(=O)N4CCOC5CC54)c4cccc(C(F)(F)F)c4n3)ncc21` (stereo partly drawn) [Example 13, Methyl ((1R,3R)-3-(6-((4-(2-oxa-5-azabicyclo[4.1.0]heptane-5-carbonyl)-8-(trifluoromethyl)quinolin-2-yl)amino)-3-(methyl-d3)-2-oxo-2,3-dihydro-1H-imidazo[4,5-c]pyridin-1-yl)cyclopentyl)carbamate]: the IC50 in assay [1] was 500 to 1000 nM; in assay [2] it was not above 10 nM; in assay [3], not above 10 nM; in assay [4], 500 to 1000 nM.

As to `COC(=O)Nc1cc(Nc2cc3c(cn2)n(C)c(=O)n3[C@@H]2CC[C@@H](NC(=O)OC)C2)cc(-c2cn(C)nn2)c1` [Example 14, Methyl (3-((1-((1R,3R)-3-((methoxycarbonyl)amino)cyclopentyl)-3-methyl-2-oxo-2,3-dihydro-1H-imidazo[4,5-c]pyridin-6-yl)amino)-5-(1-methyl-1H-1,2,3-triazol-4-yl)phenyl)carbamate], the IC50 is more than 1000 nM in assay [1], not above 10 nM in assay [2], 10 to 100 nM in assay [3] and more than 1000 nM in assay [4].

Turning to `COC(=O)Nc1cc(Nc2cc3c(cn2)n(C)c(=O)n3[C@@H]2CC[C@@H](NC(=O)OC)C2)cc(C2CCN(C)CC2)c1` [Example 15, Methyl (3-((1-((1R,3R)-3-((methoxycarbonyl)amino)cyclopentyl)-3-methyl-2-oxo-2,3-dihydro-1H-imidazo[4,5-c]pyridin-6-yl)amino)-5-(1-methylpiperidin-4-yl)phenyl)carbamate], the IC50 in assay [1] is more than 1000 nM; in assay [2], not above 10 nM; in assay [3], 10 to 100 nM; in assay [4], more than 1000 nM.

Take `[2H]C([2H])([2H])n1c(=O)n([C@@H]2CC[C@@H](NC(=O)OC)C2)c2cc(Nc3cc(C(=O)N4CCCC(F)(F)C4)c4cccc(C(F)(F)F)c4n3)ncc21` [Example 16, Methyl ((1R,3R)-3-(6-((4-(3,3-difluoropiperidine-1-carbonyl)-8-(trifluoromethyl)quinolin-2-yl)amino)-3-(methyl-d3)-2-oxo-2,3-dihydro-1H-imidazo[4,5-c]pyridin-1-yl)cyclopentyl)carbamate]: the IC50 in assay [1] is more than 1000 nM; in assay [2], not above 10 nM; in assay [3], not above 10 nM; in assay [4], more than 1000 nM.

Turning to `COC(=O)N[C@@H]1CC[C@@H](n2c(=O)n(C)c3cnc(Nc4cc(NC(=O)[C@H]5CC5(F)F)cc(C5CCOCC5)c4)cc32)C1` [Example 17, Methyl ((1R,3R)-3-(6-((3-((R)-2,2-difluorocyclopropane-1-carboxamido)-5-(tetrahydro-2H-pyran-4-yl)phenyl)amino)-3-methyl-2-oxo-2,3-dihydro-1H-imidazo[4,5-c]pyridin-1-yl)cyclopentyl)carbamate], the IC50 in assay [1] is more than 1000 nM; in assay [2] it was not above 10 nM; in assay [3], not above 10 nM; in assay [4], more than 1000 nM.

In the case of `[2H]C([2H])([2H])n1c(=O)n([C@@H]2CC[C@@H](NC(=O)OC)C2)c2cc(Nc3ccc4cc(NC5CCC(F)(F)C5)cc(C(F)(F)F)c4n3)ncc21` (stereo partly drawn) [Example 18, Methyl ((1R,3R)-3-(6-((6-((3,3-difluorocyclopentyl)amino)-8-(trifluoromethyl)quinolin-2-yl)amino)-3-(methyl-d3)-2-oxo-2,3-dihydro-1H-imidazo[4,5-c]pyridin-1-yl)cyclopentyl)carbamate], the IC50 in assay [1] is more than 1000 nM; in assay [2] it was not above 10 nM; in assay [3], not above 10 nM; in assay [4], more than 1000 nM.

As to `COC(=O)N[C@@H]1CC[C@@H](n2c(=O)n(C)c3cnc(Nc4cc(NC(=O)C5CCC5)cc(C5CCOCC5)c4)cc32)C1` [Example 19, Methyl ((1R,3R)-3-(6-((3-(cyclobutanecarboxamido)-5-(tetrahydro-2H-pyran-4-yl)phenyl)amino)-3-methyl-2-oxo-2,3-dihydro-1H-imidazo[4,5-c]pyridin-1-yl)cyclopentyl)carbamate], the IC50 in assay [1] is more than 1000 nM; in assay [2], not above 10 nM; in assay [3], not above 10 nM; in assay [4], more than 1000 nM.

With `[2H]C([2H])([2H])n1c(=O)n([C@@H]2CC[C@@H](NC(=O)OC)C2)c2cc(Nc3ccc4cc(-c5cnn(C)c5)cc(C(F)(F)F)c4n3)ncc21` [Example 20, Methyl ((1R,3R)-3-(3-(methyl-d3)-6-((6-(1-methyl-1H-pyrazol-4-yl)-8-(trifluoromethyl)quinolin-2-yl)amino)-2-oxo-2,3-dihydro-1H-imidazo[4,5-c]pyridin-1-yl)cyclopentyl)carbamate], the IC50 is more than 1000 nM in assay [1], not above 10 nM in assay [2], not above 10 nM in assay [3] and more than 1000 nM in assay [4].

These data come from patent US20240317744A1, “Bicyclic Ureas As Kinase Inhibitors” (Incyte Corporation, priority 2023, published 2024).
